Tested on: influenza virus genome replication and transcription in yeast cells
Type: cell-based

C[C@@H]1C[C@@H]([C@H](O)CC2CC(=O)NC(=O)C2)C(=O)[C@@H](C)C1 [cycloheximide]
synthesis level of viral RNAs: markedly reduced
